The nature of this series: Metabolic stability assay (in vitro), mouse hepatic microsomes. Format: in vitro ADME. The conditions noted are these: mouse liver microsomes, 0.5 μM test compound. On the procedure: 3. Metabolic Stability Assay (In Vitro)
Metabolic stability was assessed, generating the in vitro intrinsic clearance (Cli) following incubation of test compound with mouse hepatic microsomes. The assay was performed as previously described (Ruda et al. (2010), “Aryl Phosphoramidates of 5-phosho erythronohydroxamic acid, a new class of potent trypanocidal agents”, J. Med. Chem. 53, pp 6071-6078).
Briefly, each test compound (0.5 μM) was incubated with pooled female mouse liver microsomes (Tebu-Bio, UK; 0.5 mg/ml 50 mM potassium phosphate buffer, pH7.4) and the reaction started with addition of excess NADPH (8 mg/ml 50 mM potassium phosphate buffer, pH7.4) Immediately, at time zero, then at 3, 6, 9, 15 and 30 minutes an aliquot (50 μl) of the incubation mixture was removed and mixed with acetonitrile (100 μl) to stop the reaction. Internal standard was added to all samples. […]
XLfit (IDBS, UK) was used to calculate the exponential decay and consequently the rate constant (k) from the ratio of peak area of test compound to internal standard at each timepoint. The rate of intrinsic clearance (CLi) of each compound was then calculated using the following equation (1): CLi(ml/min/g liver)=k×V×Microsomal protein yield (1) where V (ml/mg protein) is the incubation volume/mg protein added and microsomal protein yield is taken as 52.5 mg protein/g liver. […]
On the technique in general: Liver microsomes are a subcellular fraction often used to study metabolism.

In the case of `Clc1cncc(OC[C@@H]2CN(CCN3CCc4ccccc43)CCO2)c1` [Compound 27s, (S)-2-(((5-Chloropyridin-3-yl)oxy)methyl)-4-(2-(indolin-1-yl)ethyl)morpholine], the “mouse hepatic microsomal Cli (intrinsic clearance)” value worked out at 25 mL/min/g.

For the origin of these results see US9079895B2, “Morpholino compounds, uses and methods” (University of Dundee, priority 2012, dated 2015).
